In patent publication US9327008B2, “Cell-permeant peptide-based inhibitor of kinases” (Purdue Research Foundation, priority 2008, dated 2016):

Assays:
[1] = target: T1, Tie2 (Homo sapiens, UniProt Q02763); assay: Millipore radiometric kinase activity assay, Tie2 (h); format: biochemical
T1 construct: purchased Millipore (radiometric assay service)
Experimental: (§1) A commercial radiometric assay service (Millipore, Billerica, Mass.) was used to test the specificity and potency of peptides containing a coupled transduction domain and therapeutic domain, hereinafter “complete peptides”). In these assays, if the kinase is not inhibited by an inhibitor peptide, a positively charged substrate is phosphorylated with a radiolabeled phosphate group from an ATP.
In a final reaction volume of 25 μL, Tie2 (h) (5-10 mU) is incubated with 8 mM MOPS pH 7.0, 0.2 mM EDTA, 0.5 mM MnCl2, 0.1 mg/mL poly(Glu, Tyr) 4:1, 10 mM MgAcetate and [γ-^33P-ATP] (specific activity approx. 500 cpm/pmol, concentration as required). The reaction is initiated by the addition of the MgATP mix. After incubation for 40 minutes at room temperature, the reaction is stopped by the addition of 5 μL of a 3% phosphoric acid solution. 10 μL of the reaction is then spotted onto a Filtermat A and washed three times for 5 minutes in 75 mM phosphoric acid and once in methanol prior to drying and scintillation counting.
IC50 values for inhibitor peptides were determined using Millipore's IC50Profiler Express service. The IC50 value was estimated from a 10-point curve of one-half log dilutions. […]

[2] = system: 10 Human Kinases; assay: Specificity of complete inhibitor peptide variants on 10 human kinases; format: biochemical; details: Table 5
Experimental: as §1
IC50 values for inhibitor peptides were determined using Millipore's IC50Profiler Express service. The IC50 value was estimated from a 10-point curve of one-half log dilutions. For peptides tested for specificity, the concentration of the peptides that inhibited approximately 95% of MK2 activity was chosen to profile against a battery of kinases related to MK2, cell viability, or human disease from MilliporeKinaseProfiler service. In both assays, compounds were supplied in dimethylsulfoxide (DMSO). Every kinase activity measurement was conducted in duplicate.
Additional therapeutic inhibitor peptide variants were assayed for activity against several human kinases representative of several families of kinases. […]

[3] = target: MK2 (Homo sapiens, UniProt P49137); assay: Omnia fluorescence-based kinase activity assay for MAPKAP-K2 (reaction velocity); format: biochemical; parameters: purchased Invitrogen; details: 100 μM peptide; percentage change in MK2 reaction velocity versus unsubstituted KALNRQLGVAA at 100 μM; SD of three samples
Experimental: The Omnia® Kinase Assay for MAPKAP-K2 kit (Invitrogen, Carlsbad, Calif.), was used to determine the reaction velocity for MK2 in the presence and absence of each of the peptides listed in Table 1. The kit contains a proprietary reaction buffer to which the following were added (final concentrations are given): 1 mM ATP, 0.2 mM DTT, 10 μM MAPKAP-K2 Sox-modified peptide substrate, 5 ng MK2, and the inhibitor peptide of interest (final volume of 50 μL). Human MK2 was purchased from Invitrogen. The reactions were performed at 30° C. in the wells of a low-protein-binding 96-well plate provided with the kit, and fluorescence readings (excitation=360 nm, emission=485 nm) were taken every 30 seconds for 20 minutes using a SpectraMax M5 Spectrophotometer (Molecular Devices). Reaction velocity was determined for each reaction well from the slope of a plot of relative fluorescence units versus time. Each inhibitor peptide was tested at least at four concentrations, 12.5, 25, 50 and […], in triplicate.
In Table 1, “a” represents that the results shown are for 100 μM for all peptides; “b” represents the percentage change in MK2 reaction velocity versus the unsubstituted peptide ([…]) [SEQ ID NO: 13] at a concentration of 100 μM; “c” represents the error reported as the standard deviation between three samples.

[4] = system: IL-1β induced IL-6 expression in mesothelial cells (CRL-9444); assay: IL-6 ELISA, mesothelial cells induced with IL-1β; format: cell-based; details: IL-1β 1 ng/ml
Experimental: A cell line of pleural mesothelial cells (CRL-9444) was purchased from American Type Culture Collection. Cells were maintained and seeded in Medium 199 with Earle's BSS and 0.75 mM L-glutamine (Mediatech, Inc., Manassas, Va.), 1.25 g/L sodium bicarbonate (Sigma, St. Louis, Mo.), 3.3 nM epidermal growth factor (MBL International, Woburn, Mass.), 40 nM hydrocortisone (Sigma), 870 nM insulin (MBL International), 20 mM HEPES (Sigma), trace elements mixture B (Mediatech, Inc.), 10% fetal bovine serum (FBS) (Hyclone, Waltham, Mass.) and 1% penicillin/streptomycin (Mediatech, Inc.). Prior to treating cells with therapeutic inhibitor peptides, cells were allowed to acclimate in serum-free media consisting of only Medium 199 with Earle's BSS. L-glutamine, sodium bicarbonate, HEPES, trace elements mixture B, and penicillin/streptomycin (concentrations and suppliers as above) for 24 hours prior to treatment with cytokines and/or inhibitor peptides. […] For all cell culture experiments, the cell-penetrating MK2 inhibitor peptide sequence [sequence] [SEQ ID NO: 11] was used.
IL-6 analysis was performed with a IL-6 ELISA kit (PeproTech, Inc., Rocky Hill, N.J.). Briefly, the plate was prepared as follows. The capture antibody (antigen-affinity purified goat anti-hIL-6+2.5 mg D-mannitol) was diluted with phosphate buffered saline (PBS) to a concentration of 1 μg/ml and added to the each well of the plate. The plate was sealed and incubated at room temperature overnight. The wells then were aspirated to remove liquid, and washed 4 times using wash buffer (300 μl per well of 0.05% Tween-20 in PBS). After the last wash, the plate was inverted to remove residual buffer, and blotted on a paper towel. Block buffer (300 μl per well of 1% BSA in PBS) was added, the plate incubated for at least 1 hour at room temperature, aspirated and washed 4 times.
Standards (from 2 ng/ml to zero) and samples were prepared in diluent, immediately added to each well in triplicate, and incubated at room temperature for at least 2 hours on a plate shaker adjusted to 300 rpm. […] Following the incubation, the plate was aspirated, washed 4 times, avidin-horse radish peroxidase (HRP) conjugate added ((5.5 μl:10994.5 μl diluent) (100 μl) to each well, incubated for 30 minutes at room temperature on a plate shaker adjusted to 300 rpm, aspirated, and washed 4 times. To each well then was added ABTS Liquid Substrate Solution (Sigma) (100 μl). The plate was incubated at room temperature for color development on a plate shaker adjusted to 300 rpm. Absorbance was measured at 405 nm and 650 nm (650 nm was the wavelength correction subtracted from each 405 nm measurement) using a Spectramax M5 Microplate Reader (Molecular Devices) every 5 minutes for 50 minutes. Hoeschst 33342 nuclear stain (Invitrogen) was used to quantify cell number on the basis of DNA quantity. All results were run in triplicate and normalized to cell number.
One-way ANOVA analyses were used to determine statistically significant increases or decreases in parameters of interest. Significant differences were analyzed with Tukey HSD post hoc comparisons. A significance level of α=0.05 was used in cytokine analyses.
Mesothelial cells were incubated with IL-1β (1 ng/ml) (to induce IL-6 expression) and/or different concentrations of therapeutic inhibitor peptide. The commercially available protein kinase inhibitor Rottlerin was introduced as an inhibitor of both MK2 and PRAK.

[5] = system: IL-1β expression in rat primary cortical astrocyte cultures; details: 1 mM or 3 mM MK2i with TNF-α 5 or 10 ng/ml; 18-22 hours
Experimental: Primary rat astrocytes were isolated from embryonic day 18 Sprague Dawley rat cortices. […] Briefly, the rat cortexes were triturated with a 1 ml pipet aid until most of the large cortex pieces were dispersed. After larger tissue fragments were allowed to settle, the supernatant was collected, in a 15 ml conical tube, and pelleted by centrifugation at 1100 rpm for 1 minute. The resulting supernatant was discarded and the pellet resuspended in neurobasal media (10% horse serum, 3 mM glutamine). The astrocytes then were seeded in the petri dishes and grown until they were confluent (80-95%) after which time they were passed. Astrocytes were passed 1:4, grown to 80-95% confluency, then rinsed twice with PBS. Different treatment types were applied to each corresponding petri dish for 18-22 hours. There was a total of 1 ml of media (neurobasal media with 10% horse serum, 3 mM glutamine) plus treatment in each petri dish. […]
After 18-22 hours, the cells were rinsed with PBS, scraped into a small centrifuge tube using a lysis buffer (8 M urea, 4% CHAPS, 10 mM DTT), and disrupted by using a Disruptor Genie™ (Scientific Industries, Bohemia, N.Y.) for 2 hours. The cells were pelleted by centrifugation at 17 krpm for 15 minutes, the supernatant (cell lysate) collected and the total protein concentration quantified (Pierce BCA Protein Assay kit, Thermo Fisher Scientific, Rockford, Ill.).

[6] = system: IL-6 expression in triple culture of neurons, astrocytes and microglia; details: 1 mM or 3 mM MK2i with TNF-α 5 or 10 ng/ml
Experimental: The inhibitory effect of therapeutic inhibitor protein having amino acid sequence [sequence] [SEQ ID NO: 11] on IL-6 production was studied in a triple culture consisting of neurons, astrocytes and microglia. […] The E18 cells were plated (1×10^6 cells/ml) to support differentiation into neurons, astrocytes and microglia. […] The positive control comprised treating the cells with TNF-α (either 5 ng/ml or 10 ng/ml); as a negative control, the cells were exposed to cell media without any treatment. […] Cytokines with or without therapeutic inhibitor peptide were always added simultaneously in this media formulation.

T1 sequence (Q02763 23-1124): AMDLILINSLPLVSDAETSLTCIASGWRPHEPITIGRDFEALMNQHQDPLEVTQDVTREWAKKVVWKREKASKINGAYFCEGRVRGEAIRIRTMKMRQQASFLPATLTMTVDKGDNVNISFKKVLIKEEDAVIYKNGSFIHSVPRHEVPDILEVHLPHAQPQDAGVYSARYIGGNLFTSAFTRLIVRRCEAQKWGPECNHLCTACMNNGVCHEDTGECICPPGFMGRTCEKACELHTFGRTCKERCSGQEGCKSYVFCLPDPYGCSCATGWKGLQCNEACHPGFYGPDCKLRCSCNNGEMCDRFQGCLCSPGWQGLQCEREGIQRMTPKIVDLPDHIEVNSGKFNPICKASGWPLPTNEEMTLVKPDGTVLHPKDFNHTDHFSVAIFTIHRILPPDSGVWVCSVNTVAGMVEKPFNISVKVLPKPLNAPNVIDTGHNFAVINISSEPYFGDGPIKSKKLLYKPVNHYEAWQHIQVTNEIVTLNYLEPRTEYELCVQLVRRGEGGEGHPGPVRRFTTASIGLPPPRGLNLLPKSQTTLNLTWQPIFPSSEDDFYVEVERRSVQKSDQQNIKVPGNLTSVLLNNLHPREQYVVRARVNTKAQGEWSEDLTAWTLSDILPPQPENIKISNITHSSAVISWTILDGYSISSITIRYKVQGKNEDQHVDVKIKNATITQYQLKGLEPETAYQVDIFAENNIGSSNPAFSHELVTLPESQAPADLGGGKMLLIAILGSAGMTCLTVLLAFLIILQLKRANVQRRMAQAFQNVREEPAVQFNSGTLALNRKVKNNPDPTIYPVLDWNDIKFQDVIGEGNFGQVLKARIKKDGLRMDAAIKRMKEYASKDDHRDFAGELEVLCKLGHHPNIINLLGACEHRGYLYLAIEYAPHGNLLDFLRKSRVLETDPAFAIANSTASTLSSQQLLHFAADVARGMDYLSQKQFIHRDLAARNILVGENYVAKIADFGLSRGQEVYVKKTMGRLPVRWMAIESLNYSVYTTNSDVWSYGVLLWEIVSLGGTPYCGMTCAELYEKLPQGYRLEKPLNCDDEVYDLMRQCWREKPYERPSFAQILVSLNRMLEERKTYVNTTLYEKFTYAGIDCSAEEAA
Chain of MK2 (P49137 whole entry): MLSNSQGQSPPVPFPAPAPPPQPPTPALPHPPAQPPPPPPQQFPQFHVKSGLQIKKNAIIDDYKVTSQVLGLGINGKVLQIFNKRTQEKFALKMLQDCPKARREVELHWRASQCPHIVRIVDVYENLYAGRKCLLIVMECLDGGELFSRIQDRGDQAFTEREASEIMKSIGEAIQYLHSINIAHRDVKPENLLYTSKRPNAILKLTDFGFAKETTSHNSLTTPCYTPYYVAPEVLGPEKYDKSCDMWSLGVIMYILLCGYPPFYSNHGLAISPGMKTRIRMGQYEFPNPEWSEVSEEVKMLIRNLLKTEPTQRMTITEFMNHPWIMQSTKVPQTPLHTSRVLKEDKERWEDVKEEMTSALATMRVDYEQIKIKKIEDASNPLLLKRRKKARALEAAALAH

## WLRRIKAWLRRIKALNRQLGVAA
[1]; peptide 30 μM
  Tie2 Kinase Activity (%) (+SD %): 17 (1) %
[1]; peptide 100 μM
  Tie2 Kinase Activity (%) (+SD %): 0 (0) %
[2]
  specificity among therapeutic inhibitor peptides (in words): least specificity
[3]
  percent change in MK2 reaction velocity versus unsubstituted peptide: −132(10) %

## YARAAARQARAKALARQLGVAA
[4]; different concentrations of peptide
  IL-1β induced IL-6 expression (FIG. 7): inhibited
[4]; peptide 3 mM
  time at which significant reduction of IL-1β induced IL-6 expression occurs: 6 h
[4]; peptide 3 mM (highest concentration)
  IL-1β induced IL-6 expression (FIG. 7): significantly reduced
[5]
  level of expression of IL-1β (FIG. 10): able to inhibit
[6]
  level of expression of IL-6 (FIG. 11): reduced levels of expression of IL-6
